The target of assay [1] is T1, human IKK-β (Homo sapiens, UniProt O14920).
T1 construct: A cDNA fragment encoding human IKK-β open reading frame was generated by PCR; His; made in house; host or cells: Sf21 insect cells (baculovirus); the GST-IκBα substrate was made in E. coli
T1 sequence (O14920 1-756): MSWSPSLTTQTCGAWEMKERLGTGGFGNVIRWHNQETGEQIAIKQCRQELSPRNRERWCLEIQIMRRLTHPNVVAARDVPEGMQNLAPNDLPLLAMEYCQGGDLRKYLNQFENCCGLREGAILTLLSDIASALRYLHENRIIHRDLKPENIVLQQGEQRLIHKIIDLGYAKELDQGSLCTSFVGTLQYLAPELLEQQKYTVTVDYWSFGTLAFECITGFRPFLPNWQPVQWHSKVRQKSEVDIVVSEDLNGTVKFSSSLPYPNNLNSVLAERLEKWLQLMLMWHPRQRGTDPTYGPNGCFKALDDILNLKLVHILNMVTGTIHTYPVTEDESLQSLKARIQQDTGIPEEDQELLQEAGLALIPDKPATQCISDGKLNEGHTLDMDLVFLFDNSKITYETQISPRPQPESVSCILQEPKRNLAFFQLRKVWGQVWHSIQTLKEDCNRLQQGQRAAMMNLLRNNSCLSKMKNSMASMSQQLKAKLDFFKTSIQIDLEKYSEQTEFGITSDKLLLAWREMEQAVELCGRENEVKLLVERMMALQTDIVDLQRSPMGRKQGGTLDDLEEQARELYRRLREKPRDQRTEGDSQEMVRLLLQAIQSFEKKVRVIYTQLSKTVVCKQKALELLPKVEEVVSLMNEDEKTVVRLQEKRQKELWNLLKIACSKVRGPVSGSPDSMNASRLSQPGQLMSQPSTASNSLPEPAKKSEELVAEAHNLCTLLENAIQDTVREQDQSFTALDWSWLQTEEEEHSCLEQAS
The experiment in a line: IKK-β kinase inhibitory assay. In kind it is biochemical. The note with it: compounds of about 40 to 90% purity, read-out: In vitro activity grade (invitro, IC50). From the text:
IKK-β Kinase Inhibitory Assay.
• (1) Preparation of IKK-β Kinase Protein. • A cDNA fragment encoding human IKK-β open reading frame was generated by PCR with the use of a pair of primers designed from the published sequence (Woronicz J D et al. (1997) Science 278,866-869). A template was obtained from Quickclone cDNA (Clontech) using Elongase™ Amplification kit (Life Technologies). The DNA fragments generated by PCR were gel-purified and subcloned into pBluescript. The cDNA fragment cloned in pBluescript was inserted into pcDNA3.1/His C KpnI/NotI, and transferred into pVL1393 SmaI/XbaI (Pharmingen) to construct a baculovirus transfer vector. Then the vector, together with the linearized baculovirus (BaculoGold™, Pharmingen) was used to transfect Sf21 cells (Invitrogen, San Diego, Calif.). Generated recombinant baculovirus was cloned and amplified in Sf21 cells, grown in TNM-FH insect cell medium (Life Technologies, Inc.) supplemented with 10% FCS, […] Gentamycin, 0.1% Pluronic F-68 (Life Technologies, Inc.) as suspension culture (200 ml in 1 L Erlenmeyer flask; 27° C.; 130 rpm). Sf21 cells were infected with this amplified virus with a multiplicity of infection of 5 following standard protocols (Crossen R, Gruenwald S (1997) Baculovirus Expression Vector System Instruction Manual, Pharmingen Corporation) and harvested 48 hrs. later. The cells were lysed to obtain the produced chimeric protein of IKK-β kinase fused by histidine (His-tagged IKK-beta). • (2) The Preparation of Purified GST-IκBα Fusion Proteins • An expression vector containing the nucleotide sequence encoding fusion protein of GST with amino acid residues 1 to 54 of IκBα under the control of an IPTG-inducible promoter was constructed. The expression vector was introduced in E. coli and the transformant was cultured and lysed to obtain a GST-IκBα fusion protein. Then the resulting GST-IκBα fusion protein was purified and biotinated for kinase assay. • (3) The Measurement of IKK-β Kinase Activity • The 96-well format kinase assay of IKK-β was performed to test the inhibitory activity of the compounds of the present invention. First, 5 μl of a test compound was put in the presence of 2.5% dimethyl sulfoxide (DMSO) in each well in a U-bottomed 96-well plate (Falcon). For control wells of background (BG) and total phosphorylation (TP), 5 μl of 2.5% DMSO was put. Recombinant IKK-β (final 0.6 μg/ml) and bio-GST-IκBα (1-54) (final 0.2 μM) were diluted in 25 μl of 2×kinase buffer β (40 mM Tris-HCl, pH 7.6, 40 mM MgCl2, 40 mM β-glycerophosphate, 40 mM p-nitrophenyl-phosphate, 2 mM EDTA, 40 mM creatine phosphate, 2 mM DTT, 2 mM Na3VO4, 0.2 mg/ml BSA and 0.8 mM phenylmethylsulfonyl fluoride) and transferred to the 96-well plate. Bio-GST-IκBα (1-54) in 25 μl of 2×kinase buffer β without IKK-β was transferred to BG wells. Then 20 μl of 12.5 μM ATP, 62.5 μCi/ml [γ-^33P] ATP (Amersham Pharmacia Biotech) was added and the resulting mixture was incubated for 2 hrs. at room temperature. The kinase reactions were terminated by the addition of 150 μl of termination buffer (100 mM EDTA, 1 mg/ml BSA, 0.2 mg NaN3). One handred and fifty μl of the sample was transferred to a streptavidin-coated, white MTP (Steffens Biotechniche Analysen GmbH #08114E14. FWD) to capture the biotinylated substrates. After 1 hr. of incubation, non-bound radioactivity was eliminated by washing the wells five times with 300 μl of washing buffer including 0.9% NaCl and 0.1% (w/v) Tween-20 with the use of a MW-96 plate washer (BioTec). The bound radioactivity was determined after the addition of 170 μl MicroScint-PS scintillation cocktail (Packard) using a TopCount scintillation counter. Syk Tyrosine Kinase Inhibitory Assay for Selectivity. • (1) Preparation of Syk Protein • A cDNA fragment encoding human Syk openreading frame was cloned from total RNA of human Burkitt's lymphoma B cell lines, Raji (American Type Culture Collection), with the use of RT-PCR method. […]

Assay [2] concerns RANTES production in response to TNF-α from A549 cells. The experiment in a line: RANTES production in response to TNF-α from A549 cells. In kind it is cell-based, human. The note with it: 100 ng/ml TNF-α, compounds of about 40 to 90% purity, read-out: Cellular activity grade (A549, IC50).

Each structure is given as a SMILES string. Counter-ions that a name gives are not always drawn. Like-named read-outs stand apart in the source and are kept apart here.

Turning to `N#Cc1c(-c2cccc(NC(=O)NCCN3CCCCC3)c2)cc(-c2ccccc2O)nc1N` [Example 2-09], the IC50 was in the range of 500 to 2000 nM in assay [1] and 1 to 10 µM in assay [2] (Homo sapiens, A549, 24 h).

Consider `N#Cc1c(-c2ccc(Cl)c(NC(=O)CCN3CCCCC3)c2)cc(-c2ccccc2O)nc1N` [Example 2-18], for which the IC50 was 500 to 2000 nM in assay [1] and > 10 µM in assay [2] (Homo sapiens, A549, 24 h). On to `N#Cc1c(-c2ccc(OCC3CC3)c(NC(=O)CNCC3CC3)c2)cc(-c2ccccc2O)nc1N` [Example 4-34], for which the concentration for half-maximal inhibition (IC50) is > 10000 nM in assay [1] and 1 to 10 µM in assay [2] (Homo sapiens, A549, 24 h). As to `N#Cc1c(-c2ccc(N3CCOCC3)c(NC(=O)CCN)c2)cc(-c2ccccc2O)nc1N` [Example 3-06], the IC50 is 500 to 2000 nM in assay [1] and 1 to 10 µM in assay [2] (Homo sapiens, A549, 24 h). For the compound `N#Cc1c(-c2cccc(NC(=O)C[C@H](N)C(=O)O)c2)cc(-c2ccccc2O)nc1N` [Example 1-09], the IC50 in assay [1] is < 500 nM; in assay [2] (Homo sapiens, A549, 24 h) it was > 10 µM. In the case of `COCCNCC(=O)Nc1cc(-c2cc(-c3ccccc3O)nc(N)c2C#N)ccc1Cl` [Example 4-25], the IC50 in assay [1] was < 500 nM; in assay [2] (Homo sapiens, A549, 24 h), > 10 µM. Consider `N#Cc1c(-c2cccc(NC(=O)CCN3CCN(Cc4ccccc4)CC3)c2)cc(-c2ccccc2O)nc1N` [Example 4-11], for which the IC50 in assay [1] was in the range of 2000 to 10000 nM; in assay [2] (Homo sapiens, A549, 24 h), 1 to 10 µM. For `CN1CCN(CC(=O)Nc2cccc(-c3cc(-c4ccccc4O)nc(N)c3C#N)c2)CC1` [Example 4-02], in that order: 500 to 2000 nM and 1 to 10 µM. Regarding `CC(=O)Nc1ccc(-c2cc(-c3ccccc3O)nc(N)c2C#N)cc1OCCN1CCCCC1` [Example 9, N-{4-[2-amino-3-cyano-6-(2-hydroxyphenyl)-4-pyridinyl]-2-[2-(1-piperidinyl)ethoxy]phenyl}acetamide ditrifluoroacetate], the IC50 in assay [1] is 500 to 2000 nM; in assay [2] (Homo sapiens, A549, 24 h), 1 to 10 µM. With `N#Cc1c(-c2cccc(NC(=O)C3CCC(=O)O3)c2)cc(-c2ccccc2O)nc1N` (centres unmarked) [Example 1-03], the IC50 in assay [1] is 500 to 2000 nM; in assay [2] (24 hrs), > 10 µM. Regarding `N#Cc1c(-c2cccc(C(=O)O)c2)cc(-c2ccccc2O)nc1N` [Example 5-1, Sodium 3-[2-amino-3-cyano-6-(2-hydroxyphenyl)-4-pyridinyl]benzoate], the IC50 in assay [1] was 2000 to 10000 nM; in assay [2] (Homo sapiens, A549, 24 h), > 10 µM. For the compound `CC(=O)Nc1cccc(-c2cc(-c3ccccc3O)nc(N)c2C#N)c1` [Example 1-14], the IC50 in assay [1] is > 10000 nM; in assay [2] (Homo sapiens, A549, 24 h), > 10 µM. In the case of `N#Cc1c(-c2ccc(C(=O)O)cc2)cc(-c2ccccc2O)nc1N` [Example 5-02], the IC50 in assay [1] is 500 to 2000 nM; in assay [2] (Homo sapiens, A549, 24 h) it was > 10 µM. As to `CC(C)C[C@H](N)C(=O)Nc1cc(-c2cc(-c3ccccc3O)nc(N)c2C#N)ccc1N1CCC[C@H]1CO` [Example 3-11], the IC50 in assay [1] was 500 to 2000 nM; in assay [2] (Homo sapiens, A549, 24 h), 1 to 10 µM.

Consider `N#Cc1c(-c2cccc(NC(=O)CCN3CCCC4CCCCC43)c2)cc(-c2ccccc2O)nc1N` (centres unmarked) [Example 4-15], for which the IC50 in assay [1] was 500 to 2000 nM; in assay [2] (Homo sapiens, A549, 24 h) it was 1 to 10 µM. On to `COCCNCC(=O)Nc1cc(-c2cc(-c3ccccc3O)nc(N)c2C#N)ccc1OCC1CC1` [Example 4-32], for which the 50% inhibitory concentration (IC50) was 2000 to 10000 nM in assay [1] and 1 to 10 µM in assay [2] (Homo sapiens, A549, 24 h).

In the case of `CN1CCN(C(=O)Nc2cccc(-c3cc(-c4ccccc4O)nc(N)c3C#N)c2)CC1` [Example 2-08], the IC50 in assay [1] lay in the range of 2000 to 10000 nM; in assay [2] (Homo sapiens, A549, 24 h) it was 1 to 10 µM. As for `N#Cc1c(-c2ccc(Cl)c(NC(=O)CNCC3CC3)c2)cc(-c2ccccc2O)nc1N` [Example 4-30], the IC50 in assay [1] was 500 to 2000 nM; in assay [2] (Homo sapiens, A549, 24 h) it was > 10 µM. Turning to `CN(C)c1ccc(-c2cc(-c3ccccc3O)nc(N)c2C#N)cc1NC(=O)CCN1CCCCC1` [Example 4-36], the IC50 in assay [1] lay within 500 to 2000 nM; in assay [2] (24 hrs), 1 to 10 µM.

Take `N#Cc1c(-c2cccc(NC(=O)CCN3CCN(CCO)CC3)c2)cc(-c2ccccc2O)nc1N` [Example 4-13]: the concentration for half-maximal inhibition (IC50) in assay [1] lay within 500 to 2000 nM; in assay [2] (Homo sapiens, A549, 24 h) it was 1 to 10 µM. Regarding `N#Cc1c(-c2ccc(Cl)c(N)c2)cc(-c2ccccc2O)nc1N` [Example 2-19], the IC50 is > 10000 nM in assay [1] and 1 to 10 µM in assay [2] (Homo sapiens, A549, 24 h). The like results for `N#Cc1c(-c2cccc(NC(=O)CCN3CCCCC3)c2)cc(-c2ccccc2O)nc1N` [Example 2-1, N-{3-[2-amino-3-cyano-6-(2-hydroxyphenyl)-4-pyridinyl]phenyl}-3-(1-piperidinyl)propanamide hydrochloride] were, in that order, 500 to 2000 nM and 1 to 10 µM. Consider `CN(C)CC(=O)Nc1cccc(-c2cc(-c3ccccc3O)nc(N)c2C#N)c1` [Example 4-22], for which the IC50 was in the range of 500 to 2000 nM in assay [1] and 1 to 10 µM in assay [2] (Homo sapiens, A549, 24 h).

For the compound `CCNc1ccc(-c2cc(-c3c(O)cccc3OCC3CC3)nc(N)c2CO)cc1O` [Example 8-1, 2-[6-amino-4-[4-(ethylamino)-3-hydroxyphenyl]-5-(hydroxymethyl)-2-pyridinyl]-3-(cycloproylmethoxy)phenol hydrochloride], the IC50 in assay [1] fell in the range of 500 to 2000 nM. Consider `CCn1c(=O)oc2cc(-c3cc(-c4c(O)cccc4OCC4CC4)nc4c3COC(=O)N4)ccc21` [Example 8-2, 7-[2-(cyclopropylmethoxy)-6-hydroxyphenyl-5-(3-ethyl-2-oxo-2,3-dihydro-1,3-benzoxazol-6-yl)-1,4-dihydro-2H-pyrido[2,3-d][1,3]oxazin-2-one hydrochloride], for which the half-inhibitory concentration (IC50) in assay [1] lay in the range of 2000 to 10000 nM. With `Nc1cc(-c2cccc(NC(=O)CNCC3CC3)c2)cc(-c2ccccc2O)n1` [Example 4-39], the IC50 in assay [1] fell in the range of 2000 to 10000 nM. Consider `CC(=O)Nc1ccc(-c2cc(-c3c(O)cccc3OCC3CC3)nc(N)c2CO)cc1O` [Example 8-3, N-{4-[2-amino-6-[2-(cyclopropylmethoxy)-6-hydroxyphenyl]-3-(hydroxymethyl)-4-pyridinyl]-2-hydroxyphenyl}acetamide hydrochloride], for which the IC50 in assay [1] is < 500 nM.

A word on the IC50: it is the concentration needed to halve the response being measured.

These data come from patent US7410986B2, “4-6-diphenyl pyridine derivatives as antiinflammatory agents” (Bayer Aktiengesellschaft, priority 2000, dated 2008).
